Data published in article PMC10385579, “Design, Synthesis, and Biological Evaluation of Indole-2-carboxamides as Potential Multi-Target Antiproliferative Agents” (Pharmaceuticals, 2023).

Columns and labels:
[1] = Cell viability assay (MTT) on MCF-10A; type: cell-based; conditions: human, MCF-10A mammary gland epithelial cells, MCF-10A cells, four days
Protocol: To assess the viability of compounds IV and Va–i, the human mammary gland epithelial (MCF-10A) cell line was exploited. Compounds IV and Va–i were cultured for four days on MCF-10A cells before being evaluated for vitality using the MTT assay.
To test the viability of the new compounds, the human mammary gland epithelial (MCF-10A) cell line was used. Compounds IV and Va–i were incubated on MCF-10A cells for four days before being tested for viability using the MTT assay. See Supplementary Materials.
4.2. Biological evaluation
4.2.1. Cytotoxic activity using MTT Assay and evaluation of IC50
MTT assay was performed to investigate the effect of the synthesized compounds on mammary epithelial cells (MCF-10A). The cells were propagated in medium consisting of Ham's F-12 medium/ Dulbecco's modified Eagle's medium (DMEM) (1:1) supplemented with 10% foetal calf serum, 2 mM glutamine, insulin (10 μg/mL), hydrocortisone (500 ng/mL) and epidermal growth factor (20 ng/mL). Trypsin ethylenediamine tetra acetic acid (EDTA) was used to passage the cells after every 2-3 days. 96-well flat-bottomed cell culture plates were used to seed the cells at a density of 10^4 cells mL-1. The medium was aspirated from all the wells of culture plates after 24 h followed by the addition of synthesized compounds (in 200 μL medium to yield a final concentration of 0.1% (v/v) dimethyl sulfoxide) into individual wells of the plates. Four wells were designated to a single compound. The plates were allowed to incubate at 37°C for 96 h. Afterwards, the medium was aspirated and 3-[4,5-dimethylthiazol-2-yl]-2,5-diphenyltetrazolium bromide (MTT) (0.4 mg/mL) in medium was added to each well and subsequently incubated for 3 h. The medium was aspirated and 150 μL dimethyl sulfoxide (DMSO) was added to each well. The plates were vortexed followed by the measurement of absorbance at 540 nm on a microplate reader. The results were presented as inhibition (%) of proliferation in contrast to controls comprising 0.1%

[2] = tested on: human epithelial (A-549) cancer cell line; assay: Antiproliferative assay, A-549; type: cell-based; conditions: A549, read-out: Antiproliferative Activity IC50 ± SEM, A-549
Protocol: (§1) 4.2.1.2. Assay for antiproliferative effect
(§2) To explore the antiproliferative potential of compounds propidium iodide fluorescence assay was performed using different cell lines such as Panc-1 (pancreas cancer cell line), MCF-7 (breast cancer cell line), HT-29 (colon cancer cell line) and A-549 (epithelial cancer cell line), respectively.
(§3) To calculate the total nuclear DNA, a fluorescent dye (propidium iodide, PI) is used which can attach to the DNA, thus offering a quick and precise technique. PI cannot pass through the cell membrane and its signal intensity can be considered as directly proportional to quantity of cellular
(§4) DNA. Cells whose cell membranes are damaged or have changed permeability are counted as dead ones. The assay was performed by seeding the cells of different cell lines at a density of 3000-7500 cells/well (in200μl medium) in culture plates followed by incubation for 24h at 37 °C in humidified 5%CO2/95% air atmospheric conditions. The medium was removed; the compounds were added to the plates at 10 μM concentrations (in 0.1% DMSO) in triplicates, followed by incubation for 48h. DMSO (0.1%) was used as control. After incubation, medium was removed followed by the addition of PI (25 μl, 50μg/mL in water/medium) to each well of the plates. At - 80 °C, the plates were allowed to freeze for 24 h, followed by thawing at 25 °C. A fluorometer (Polar-Star BMG Tech) was used to record the readings at excitation and emission wavelengths of 530 and 620 nm for each well. The percentage cytotoxicity of compounds was calculated using […]
(§5) Where ATC= Absorbance of treated cells and AC= Absorbance of control. Erlotinib was used as positive control in the assay.

[3] = tested on: breast cancer (MCF-7) cell line; assay: Antiproliferative assay, MCF-7; type: cell-based; conditions: Homo sapiens, MCF7; read-out: Antiproliferative Activity IC50 ± SEM, MCF-7
Protocol: as §1, §2, §3, §4, §5

[4] = tested on: pancreatic cancer (Panc-1) cell line; assay: Antiproliferative assay, Panc-1; type: cell-based; conditions: Homo sapiens, read-out: Antiproliferative Activity IC50 ± SEM, Panc-1
Protocol: as §1, §2, §3, §4, §5

[5] = tested on: colon cancer (HT-29) cell line; assay: Antiproliferative assay, HT-29; type: cell-based; conditions: Homo sapiens, read-out: Antiproliferative Activity IC50 ± SEM, HT-29
Protocol: as §1, §2, §3, §4, §5

[6] = tested on: four human cancer cell lines (A-549, MCF-7, Panc-1, HT-29); assay: Antiproliferative assay, average over the four cancer cell lines (GI50); type: cell-based; conditions: average of the four cancer cell lines
Protocol: See Supplementary Materials.
as §1
To explore the antiproliferative potential of compounds propidium iodide fluorescence assay was performed using different cell lines such as Panc-1 (pancreas cancer cell line), MCF-7 (breast […]
as §3
DNA. Cells whose cell membranes are damaged or have changed permeability are counted as dead ones. The assay was performed by seeding the cells of different cell lines at a density of 3000- […]
The medium was removed; the compounds were added to the plates at 10 μM concentrations (in 0.1% DMSO) in triplicates, followed by incubation for 48h. DMSO (0.1%) was used as control. After incubation, medium was removed followed by the addition of PI (25 μl, 50μg/mL in water/medium) to each well of the plates. At - 80 °C, the plates were allowed to freeze for 24 h, followed by thawing at 25 °C. A fluorometer (Polar-Star BMG Tech) was used to record the readings at excitation and emission wavelengths of 530 and 620 nm for each well. The percentage cytotoxicity of compounds was calculated using […]
Where ATC= Absorbance of treated cells and AC= Absorbance of control. […]
positive control in the assay.

IC50 [2] | IC50 [3] | IC50 [4] | IC50 [5] | GI50 [6] | melting point | Structure (SMILES) | viability at 96 h, 50 µM [1]
54 ± 5 nM | 57 ± 5 nM | 56 ± 5 nM | 55 ± 5 nM | 56 nM | 110 to 112 °C | CCc1c(C(=O)NCC(c2ccccc2)c2c(-c3ccccc3)[nH]c3ccccc23)[nH]c2ccc(Cl)cc12 (stereo not drawn) [Compound Vc, 5-Chloro-3-ethyl-N-(2-phenyl-2-(2-phenyl-1H-indol-3-yl)ethyl)-1H-indole-2-carboxamide] | 91%
58 ± 5 nM | 61 ± 6 nM | 58 ± 5 nM | 59 ± 5 nM | 59 nM | 135 to 137 °C | Cc1c(C(=O)NCC(c2ccccc2)c2c(-c3ccccc3)[nH]c3ccccc23)[nH]c2ccc(Cl)cc12 (stereo not drawn) [Vb, 5-Chloro-3-methyl-N-(2-phenyl-2-(2-phenyl-1H-indol-3-yl)ethyl)-1H-indole-2-carboxamide] | 88%
64 ± 6 nM | 68 ± 6 nM | 66 ± 6 nM | 66 ± 6 nM | 66 nM | 130 to 132 °C | CCc1c(C(=O)NCC(c2ccccc2)c2c(-c3ccccc3)[nH]c3ccccc23)[nH]c2ccc(Br)cc12 (stereo not drawn) [Vd, 5-Bromo-3-ethyl-N-(2-phenyl-2-(2-phenyl-1H-indol-3-yl)ethyl)-1H-indole-2-carboxamide] | 89%
86 ± 8 nM | 89 ± 8 nM | 85 ± 8 nM | 85 ± 8 nM | 86 nM | 225 to 227 °C | CCc1c(C(=O)NCC(c2ccccc2)c2c(-c3ccccc3)[nH]c3ccccc23)oc2ccc(Cl)cc12 (stereo not drawn) [Vi, 5-Chloro-3-ethyl-N-(2-phenyl-2-(2-phenyl-1H-indol-3-yl)ethyl)benzofuran-2-carboxamide] | 89%

Structure (SMILES) | IC50 [2] | IC50 [3] | IC50 [4] | IC50 [5] | GI50 [6] | melting point | viability at 96 h, 50 µM [1]
NCC(c1ccccc1)c1c(-c2ccccc2)[nH]c2ccccc12 (stereo not drawn) [Compound IV, 2-phenyl-2-(2-phenyl-1H-indol-3-yl)ethan-1-amine] | 102 ± 10 nM | 106 ± 10 nM | 104 ± 10 nM | 104 ± 10 nM | 104 nM | 167 to 169 °C | 92%
C#Cc1cccc(Nc2ncnc3cc(OCCOC)c(OCCOC)cc23)c1 [Erlotinib, reference compound] | 30 ± 3 nM | 40 ± 3 nM | 30 ± 3 nM | 30 ± 3 nM |  |  | 
